Read-outs that look alike come from different tables or passages of the source. Marks after values point to notes of the source that are not given here.
Columns and labels:
[1] = Steady state plasma concentrations in subjects on chronic bupropion XL; conditions: for Mean [I] (Range, n=5): 5 subjects, normalized to 300 mg/day bupropion dose
CYP2D6 [2] = target: T1, CYP2D6 (Homo sapiens, UniProt P10635); assay: Reversible CYP2D6 inhibition in human liver microsomes; conditions: for effect on CYP2D6 activity: 50 μM test concentration, HLM
T1 sequence (P10635 whole entry): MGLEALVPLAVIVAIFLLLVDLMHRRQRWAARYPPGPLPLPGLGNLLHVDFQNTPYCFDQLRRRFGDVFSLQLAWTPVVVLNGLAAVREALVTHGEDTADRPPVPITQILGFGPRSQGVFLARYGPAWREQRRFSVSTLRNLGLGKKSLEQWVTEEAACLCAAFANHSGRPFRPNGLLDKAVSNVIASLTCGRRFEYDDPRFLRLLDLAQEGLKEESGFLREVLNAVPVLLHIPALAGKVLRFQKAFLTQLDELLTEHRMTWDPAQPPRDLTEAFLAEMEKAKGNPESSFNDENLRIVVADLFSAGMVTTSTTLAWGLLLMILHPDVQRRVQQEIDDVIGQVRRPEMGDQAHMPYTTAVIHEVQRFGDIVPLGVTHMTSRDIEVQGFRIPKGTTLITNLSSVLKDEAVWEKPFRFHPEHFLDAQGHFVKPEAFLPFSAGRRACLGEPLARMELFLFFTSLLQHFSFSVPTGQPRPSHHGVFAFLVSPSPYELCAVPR

CYP2D6 mRNA [3] = assay: in vitro; conditions: human
[4] = female, human, 2.5 μM
CYP2D6 [5] = target: T1, CYP2D6; assay: CYP2D6 inhibition in human suspension hepatocytes
[6] = Media concentrations of bupropion and metabolites in plated human hepatocytes; conditions: for concentration of metabolite formed in bupropion treated cells: plated human hepatocytes treated with bupropion 2.5 μM; for Cmedia at 72 hr: 1 hr incubation after 71 hours treatment; for Cmedia at 1 hr: after 1 hr incubation without pretreatment
CYP2D6 mRNA [7] = assay: CYP2D6 mRNA downregulation in HepG2 cells; conditions: for EC50: read-out: EC50 of CYP2D6 mRNA downregulation, 72 hrs
CYP2D6 [8] = target: T1, CYP2D6; assay: CYP2D6 activity in plated human hepatocytes; conditions: after 72 hr treatment
[9] = Partitioning into human suspension hepatocytes; conditions: 1 μM, 30 min, total concentrations
[10] = system: CYP2D6 protein expression; assay: CYP2D6 protein expression in HepG2 cells; conditions: 72 hrs; for effect on CYP2D6 protein expression: erythrohydrobupropion 5 μM, threohydrobupropion 20 μM, R,R-OH-bupropion 20 μM
CYP2D6 [11] = target: T1, CYP2D6; assay: Static prediction of in vivo reversible CYP2D6 inhibition; conditions: for share of the predicted CYP2D6 inhibition in vivo caused by the compound: reversible inhibition only
CYP2D6 mRNA [12] = assay: CYP2D6 mRNA in plated human hepatocytes; conditions: for mean CYP2D6 mRNA levels, % of vehicle treated cells: three donors, 72 hours
[13] = Plasma protein binding by ultracentrifugation; assay type: in vitro ADME, human; conditions: unbound fraction in plasma
CYP2D6 [14] = target: T1, CYP2D6; conditions: from HepG2 Emax/EC50 and circulating concentrations, 300 mg/day bupropion
CYP3A4 mRNA = CYP3A4 mRNA in plated human hepatocytes; assay type: cell-based; conditions: 72 hours
[15] = cited from earlier work
CYP2D6 [16] = conditions: cited from earlier work

Structure (SMILES): C[C@@H](NC(C)(C)C)C(=O)c1ccc(O)c(Cl)c1 [4′OH-bupropion, 4′-OH-bupropion]
- Mean [I] (Range, n=5) ([1]; steady state plasma): 0.01 µM
- effect on CYP2D6 activity (CYP2D6 [2]): no effect

Structure (SMILES): CC(NC(C)(C)C)C(=O)c1cccc(Cl)c1 (stereo not shown) [Bupropion]
- EC50 at 72 h (CYP2D6 mRNA [3]): 210 nM
- reduction of media concentration at the end of the pretreatment ([4]; 71 h): 93%
- Cmedia at 72 hr ([4]; 72 h): 1.7 ± 0.5 µM
- IC50 (CYP2D6 [5]): 13000 nM

Structure (SMILES): CC(NC(C)(C)C)C(O)c1cccc(Cl)c1 (stereo not drawn) [Erythro-hydrobupropion, erythrohydrobupropion]
- concentration of metabolite formed in bupropion treated cells [6]: 80 nM
- Cmedia at 72 hr ([6]; plated human hepatocytes): 2.1 ± 0.3 µM
- Cmedia at 1 hr ([6]; plated human hepatocytes): 1.6 ± 0.1 µM
- circulating concentration fold higher than S-bupropion ([1]; steady state plasma): ~3 fold
- circulating concentration fold lower than threohydrobupropion ([1]; steady state plasma): about 6 fold
- Mean [I] (Range, n=5) ([1]; steady state plasma): 0.29 (0.19–0.41) μM
- maximum decrease in CYP2D6 mRNA (CYP2D6 mRNA [7]; 72 hrs): 85%
- EC50 (CYP2D6 mRNA [7]): 1110 nM
- fold more potent CYP2D6 inhibitor than threohydrobupropion (CYP2D6 [2]; based on IC50 values in HLM): ~10 fold
- Apparent Percent Inhibition at 72 hrs (CYP2D6 [8]): 93 ± 1%
- cell concentration fold higher than medium [9]: 9 fold
- effect on CYP2D6 protein expression [10]: slightly less effective
- share of the predicted CYP2D6 inhibition in vivo caused by the compound (CYP2D6 [11]): 9%
- % decrease in CYP2D6 mRNA at 72 hrs (CYP2D6 mRNA [12]): 80%
- mean CYP2D6 mRNA levels, % of vehicle treated cells (CYP2D6 mRNA [12]): 20%
- fu,p (S.D. n=3) [13]: 0.7±0.1
- predicted decrease in CYP2D6 mRNA if compound acted alone at steady state (CYP2D6 [14]): 18%

Structure (SMILES): C[C@H]1NC(C)(C)CO[C@]1(O)c1cccc(Cl)c1 [OH-bupropion, hydroxybupropion]
- concentration of metabolite formed in bupropion treated cells [6]: 120 nM
- cell concentration fold higher than medium [9]: 11 fold

Structure (SMILES): C[C@H]1NC(C)(C)CO[C@]1(O)c1cccc(Cl)c1 [R,R-OH-bupropion]
- Cmedia at 72 hr ([6]; plated human hepatocytes): 19 ± 3 µM
- Cmedia at 1 hr ([6]; plated human hepatocytes): 16 ± 1 µM
- reduction of media concentration at the end of the pretreatment ([6]; plated human hepatocytes, versus initial media concentration added): 33%
- steady state concentration ratio R,R-OH-bupropion / S,S-OH-bupropion ([1]; steady state plasma): 13 fold
- Mean [I] (Range, n=5) ([1]; steady state plasma): 5.0 (3.0–9.4) μM
- effect on CYP2D6 mRNA (CYP2D6 mRNA [7]; 5-50 μM, 72 hrs): weakest effect
- fold more potent CYP2D6 inhibitor than S,S-OH-bupropion (CYP2D6 [2]; based on IC50 values in HLM): 3 fold
- Apparent Percent Inhibition at 72 hrs (CYP2D6 [8]): 83 ± 3%
- effect on CYP2D6 protein expression [10]: no effect
- fold higher I/Ki than S,S-OH-bupropion (CYP2D6 [11]): 36 fold
- share of the predicted CYP2D6 inhibition in vivo caused by the compound (CYP2D6 [11]): 65%
- change in CYP3A4 mRNA (CYP3A4 mRNA): significantly increased CYP3A4 mRNA
- % decrease in CYP2D6 mRNA at 72 hrs (CYP2D6 mRNA [12]): 72%
- mean CYP2D6 mRNA levels, % of vehicle treated cells (CYP2D6 mRNA [12]): 28%
- fu,p (S.D. n=3) [13]: 0.5±0.1
- R,R-OH-bupropion to S,S-OH-bupropion ratio ([15]; single dose AUCs): 44–65
- circulating concentration fold higher than bupropion and S,S-OH-bupropion ([15]; single dose of bupropion): up to 65 fold

Structure (SMILES): C[C@@H](NC(C)(C)C)C(=O)c1cccc(Cl)c1 [R-Bupropion, R-bupropion, reference compound]
- Mean [I] (Range, n=5) ([1]; steady state plasma): 0.22 (0.05–0.34) μM
- fu,p (S.D. n=3) [13]: 0.5±0.1

Structure (SMILES): C[C@@H]1NC(C)(C)CO[C@@]1(O)c1cccc(Cl)c1 [S,S-OH-bupropion]
- Cmedia at 72 hr ([6]; plated human hepatocytes): 1.5 ± 0.2 µM
- Cmedia at 1 hr ([6]; plated human hepatocytes): 1.3 ± 0.1 µM
- circulating concentration fold higher than S-bupropion ([1]; steady state plasma): ~3 fold
- circulating concentration fold lower than threohydrobupropion ([1]; steady state plasma): about 6 fold
- Mean [I] (Range, n=5) ([1]; steady state plasma): 0.39 ^* (0.26–0.67) μM
- maximum decrease in CYP2D6 mRNA (CYP2D6 mRNA [7]; 72 hrs): 85–88%
- EC50 (CYP2D6 mRNA [7]): 200 nM
- Apparent Percent Inhibition at 72 hrs (CYP2D6 [8]): 60 ± 11%
- downregulation of CYP2D6 protein expression ([10]; 5 μM, western blot): > 50%
- % decrease in CYP2D6 mRNA at 72 hrs (CYP2D6 mRNA [12]): 74%
- mean CYP2D6 mRNA levels, % of vehicle treated cells (CYP2D6 mRNA [12]): 26%
- fu,p (S.D. n=3) [13]: 0.5±0.1

Structure (SMILES): C[C@H](NC(C)(C)C)C(=O)c1cccc(Cl)c1 [S-Bupropion, S-bupropion, reference compound]
- Mean [I] (Range, n=5) ([1]; steady state plasma): 0.08 ^* (0.02–0.11) μM
- fu,p (S.D. n=3) [13]: 0.6±0.1

Structure (SMILES): C[C@H](NC(C)(C)C)[C@@H](O)c1cccc(Cl)c1 [Threo-hydrobupropion, threohydrobupropion]
- concentration of metabolite formed in bupropion treated cells [6]: 1400 nM
- Cmedia at 72 hr ([6]; plated human hepatocytes): 8.2 ± 1.4 µM
- Cmedia at 1 hr ([6]; plated human hepatocytes): 7.1 ± 0.6 µM
- steady state concentration fold higher than erythrohydrobupropion ([1]; average steady state plasma): 7.2 fold
- Mean [I] (Range, n=5) ([1]; steady state plasma): 2.1 (1.1–3.5) μM
- maximum decrease in CYP2D6 mRNA (CYP2D6 mRNA [7]; 72 hrs): 78%
- fold less potent in downregulating CYP2D6 mRNA than the other compounds (CYP2D6 mRNA [7]; based on EC50): 10–50 fold
- EC50 (CYP2D6 mRNA [7]): 9950 nM
- Apparent Percent Inhibition at 72 hrs (CYP2D6 [8]): 92 ± 2%
- cell concentration fold higher than medium [9]: 11 fold
- share of the predicted CYP2D6 inhibition in vivo caused by the compound (CYP2D6 [11]): approximately 21%
- % decrease in CYP2D6 mRNA at 72 hrs (CYP2D6 mRNA [12]): 82%
- mean CYP2D6 mRNA levels, % of vehicle treated cells (CYP2D6 mRNA [12]): 18%
- fu,p (S.D. n=3) [13]: 1.0±0.1
- predicted decrease in CYP2D6 mRNA if compound acted alone at steady state (CYP2D6 [14]): 14%

Structure (SMILES): CNCCCN1c2ccccc2CCc2ccccc21 [desipramine]
- fraction metabolized by CYP2D6 (fm) (CYP2D6 [16]): 90%

Structure (SMILES): CC(NC(C)(C)C)C(O)c1ccc(O)c(Cl)c1 (stereo not drawn) [threo-4′OH-bupropion, threo-4′-OH-hydrobupropion]
- effect on CYP2D6 activity (CYP2D6 [2]): no effect

Structure (SMILES): COc1ccc(C(CN(C)C)C2(O)CCCCC2)cc1 (stereo not shown) [venlafaxine]
- fraction metabolized by CYP2D6 (fm) (CYP2D6 [16]): 80%

Source: paper PMC5164944 (Biochemical pharmacology, 2016)
